In PubChem BioAssay AID2060326 (Molecular Pharmacology Branch, DTP, NCI, 2025):

Tested on: MDA-MB-468 multi-cell spheroids, viability
Assay: Anticancer human tumor MDA-MB-468 cell line growth inhibition [IpAb];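 also: spheroids exposed to agents for seven days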;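 as to viability, T/C: 100% = DMSO vehicle control viability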
Details: for IC50: curve of first compound; for viability, T/C: stronger effect = lower value
Outline: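 Combinations with ipatasertib or abemaciclib were tested on tumour spheroids holding HUVEC (25%) and MSC (15%) alongside 60% malignant cells. Top concentration was at or near clinical Cmax (10 microM if undefined), descending in half-log steps.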

[1] = second compound 0.1 µM, first compound 0.0316 µM
[2] = second compound 0.1 µM, first compound 0.1 µM
[3] = second compound 0.1 µM, first compound 0.316 µM
[4] = second compound 0.1 µM, first compound 1 µM
[5] = second compound 0.1 µM, first compound 3.16 µM
[6] = second compound 0.1 µM, first compound 10 µM
[7] = second compound 0.316 µM, first compound 0.0316 µM
[8] = second compound 0.316 µM, first compound 0.1 µM
[9] = second compound 0.316 µM, first compound 0.316 µM
[10] = second compound 0.316 µM, first compound 1 µM
[11] = second compound 0.316 µM, first compound 3.16 µM
[12] = second compound 0.316 µM, first compound 10 µM
[13] = second compound 1 µM, first compound 0.0316 µM
[14] = second compound 1 µM, first compound 0.1 µM
[15] = second compound 1 µM, first compound 0.316 µM
[16] = second compound 1 µM, first compound 1 µM
[17] = second compound 1 µM, first compound 3.16 µM
[18] = second compound 1 µM, first compound 10 µM
[19] = second compound 3.16 µM, first compound 0.0316 µM
[20] = second compound 3.16 µM, first compound 0.1 µM
[21] = second compound 3.16 µM, first compound 0.316 µM
[22] = second compound 3.16 µM, first compound 1 µM
[23] = second compound 3.16 µM, first compound 3.16 µM
[24] = second compound 3.16 µM, first compound 10 µM
[25] = second compound 10 µM, first compound 0.0316 µM
[26] = second compound 10 µM, first compound 0.1 µM
[27] = second compound 10 µM, first compound 0.316 µM
[28] = second compound 10 µM, first compound 1 µM
[29] = second compound 10 µM, first compound 3.16 µM
[30] = second compound 10 µM, first compound 10 µM

CC(C)(C)c1cnc(CSc2cnc(NC(=O)C3CCNCC3)s2)o1 + CC(C)NCC(C(=O)N1CCN(c2ncnc3c2C(C)CC3O)CC1)c1ccc(Cl)cc1
IC50 (second compound 0.1 µM): 69.1 nM
IC50 (second compound 0.316 µM): 45.3 nM
IC50 (second compound 1 µM): 36.9 nM
IC50 (second compound 3.16 µM): < 9.49 nM
IC50 (second compound 10 µM): < 9.49 nM
viability, T/C (second compound 0.1 µM, first compound 0.00949 µM): 110%
viability, T/C (second compound 0.1 µM, first compound 0.03 µM): 91.4%
viability, T/C (second compound 0.1 µM, first compound 0.0949 µM): 35%
viability, T/C (second compound 0.1 µM, first compound 0.3 µM): 0.3%
viability, T/C (second compound 0.1 µM, first compound 0.949 µM): 0.19%
viability, T/C (second compound 0.1 µM, first compound 3 µM): 0.32%
viability, T/C (second compound 0.316 µM, first compound 0.00949 µM): 73.9%
viability, T/C (second compound 0.316 µM, first compound 0.03 µM): 67.4%
viability, T/C (second compound 0.316 µM, first compound 0.0949 µM): 18.8%
viability, T/C (second compound 0.316 µM, first compound 0.3 µM): 0.27%
viability, T/C (second compound 0.316 µM, first compound 0.949 µM): 0.15%
viability, T/C (second compound 0.316 µM, first compound 3 µM): 0.27%
viability, T/C (second compound 1 µM, first compound 0.00949 µM): 62.2%
viability, T/C (second compound 1 µM, first compound 0.03 µM): 58.7%
viability, T/C (second compound 1 µM, first compound 0.0949 µM): 10%
viability, T/C (second compound 1 µM, first compound 0.3 µM): 0.2%
viability, T/C (second compound 1 µM, first compound 0.949 µM): 0.14%
viability, T/C (second compound 1 µM, first compound 3 µM): 0.24%
viability, T/C (second compound 3.16 µM, first compound 0.00949 µM): 41.5%
viability, T/C (second compound 3.16 µM, first compound 0.03 µM): 35.4%
viability, T/C (second compound 3.16 µM, first compound 0.0949 µM): 11.5%
viability, T/C (second compound 3.16 µM, first compound 0.3 µM): 0.23%
viability, T/C (second compound 3.16 µM, first compound 0.949 µM): 0.13%
viability, T/C (second compound 3.16 µM, first compound 3 µM): 0.31%
viability, T/C (second compound 10 µM, first compound 0.00949 µM): 21.3%
viability, T/C (second compound 10 µM, first compound 0.03 µM): 18.1%
viability, T/C (second compound 10 µM, first compound 0.0949 µM): 1.19%
viability, T/C (second compound 10 µM, first compound 0.3 µM): 0.32%
viability, T/C (second compound 10 µM, first compound 0.949 µM): 0.24%
viability, T/C (second compound 10 µM, first compound 3 µM): 0.65%

CC1(C)CCC(CN2CCN(c3ccc(C(=O)NS(=O)(=O)c4ccc(NCC5CCOCC5)c([N+](=O)[O-])c4)c(Oc4cnc5[nH]ccc5c4)c3)CC2)=C(c2ccc(Cl)cc2)C1 + CC(C)NCC(C(=O)N1CCN(c2ncnc3c2C(C)CC3O)CC1)c1ccc(Cl)cc1
IC50 (second compound 0.1 µM): 4760 nM
IC50 (second compound 0.316 µM): 3030 nM
IC50 (second compound 1 µM): 1380 nM
IC50 (second compound 3.16 µM): < 31.6 nM
IC50 (second compound 10 µM): < 31.6 nM
viability, T/C [1]: 109%
viability, T/C [2]: 89.5%
viability, T/C [3]: 98.3%
viability, T/C [4]: 94.6%
viability, T/C [5]: 71.3%
viability, T/C [6]: 11.3%
viability, T/C [7]: 69.8%
viability, T/C [8]: 72.2%
viability, T/C [9]: 82.4%
viability, T/C [10]: 69.5%
viability, T/C [11]: 49.3%
viability, T/C [12]: 7.93%
viability, T/C [13]: 56.9%
viability, T/C [14]: 63.8%
viability, T/C [15]: 55%
viability, T/C [16]: 56.6%
viability, T/C [17]: 34.1%
viability, T/C [18]: 5.02%
viability, T/C [19]: 34.4%
viability, T/C [20]: 37.7%
viability, T/C [21]: 38.5%
viability, T/C [22]: 36.4%
viability, T/C [23]: 26.1%
viability, T/C [24]: 2.19%
viability, T/C [25]: 17.4%
viability, T/C [26]: 18.9%
viability, T/C [27]: 17.9%
viability, T/C [28]: 19.5%
viability, T/C [29]: 9.97%
viability, T/C [30]: 0.99%

CCCS(=O)(=O)Nc1ccc(F)c(C(=O)c2c[nH]c3ncc(-c4ccc(Cl)cc4)cc23)c1F + CC(C)NCC(C(=O)N1CCN(c2ncnc3c2C(C)CC3O)CC1)c1ccc(Cl)cc1
IC50 (second compound 0.1 µM): > 10000 nM
IC50 (second compound 0.316 µM): 9960 nM
IC50 (second compound 1 µM): 498 nM
IC50 (second compound 3.16 µM): < 31.6 nM
IC50 (second compound 10 µM): < 31.6 nM
viability, T/C [1]: 86.3%
viability, T/C [2]: 87.3%
viability, T/C [3]: 98.5%
viability, T/C [4]: 98%
viability, T/C [5]: 71.7%
viability, T/C [6]: 50.1%
viability, T/C [7]: 62.2%
viability, T/C [8]: 60.7%
viability, T/C [9]: 62.5%
viability, T/C [10]: 74.8%
viability, T/C [11]: 53.3%
viability, T/C [12]: 39.3%
viability, T/C [13]: 58.4%
viability, T/C [14]: 53.6%
viability, T/C [15]: 52.6%
viability, T/C [16]: 46%
viability, T/C [17]: 40.1%
viability, T/C [18]: 27.8%
viability, T/C [19]: 35.7%
viability, T/C [20]: 34.1%
viability, T/C [21]: 29.4%
viability, T/C [22]: 31.3%
viability, T/C [23]: 30.1%
viability, T/C [24]: 18.6%
viability, T/C [25]: 17.3%
viability, T/C [26]: 18.3%
viability, T/C [27]: 18.9%
viability, T/C [28]: 16.9%
viability, T/C [29]: 13.7%
viability, T/C [30]: 2.03%

C=CCn1c(=O)c2cnc(Nc3ccc(N4CCN(C)CC4)cc3)nc2n1-c1cccc(C(C)(C)O)n1 + CC(C)NCC(C(=O)N1CCN(c2ncnc3c2C(C)CC3O)CC1)c1ccc(Cl)cc1
IC50 (second compound 0.1 µM): 383 nM
IC50 (second compound 0.316 µM): 212 nM
IC50 (second compound 1 µM): 60.2 nM
IC50 (second compound 3.16 µM): < 31.6 nM
IC50 (second compound 10 µM): < 31.6 nM
viability, T/C [1]: 101%
viability, T/C [2]: 89.3%
viability, T/C [3]: 59.5%
viability, T/C [4]: 5.21%
viability, T/C [5]: 3.03%
viability, T/C [6]: 2.74%
viability, T/C [7]: 78.6%
viability, T/C [8]: 63.7%
viability, T/C [9]: 42.6%
viability, T/C [10]: 2.96%
viability, T/C [11]: 3.13%
viability, T/C [12]: 2.21%
viability, T/C [13]: 59.4%
viability, T/C [14]: 40.8%
viability, T/C [15]: 25.7%
viability, T/C [16]: 2.27%
viability, T/C [17]: 2.93%
viability, T/C [18]: 1.68%
viability, T/C [19]: 32.1%
viability, T/C [20]: 27.2%
viability, T/C [21]: 15.7%
viability, T/C [22]: 1.82%
viability, T/C [23]: 3.18%
viability, T/C [24]: 1.47%
viability, T/C [25]: 17.8%
viability, T/C [26]: 14%
viability, T/C [27]: 9.24%
viability, T/C [28]: 1.81%
viability, T/C [29]: 2.55%
viability, T/C [30]: 1.3%

Cc1nc(NC(=O)N2CCCC2C(N)=O)sc1-c1ccnc(C(C)(C)C(F)(F)F)c1 (stereo not given) + CC(C)NCC(C(=O)N1CCN(c2ncnc3c2C(C)CC3O)CC1)c1ccc(Cl)cc1
IC50 (second compound 0.1 µM): 5510 nM
IC50 (second compound 0.316 µM): 3820 nM
IC50 (second compound 1 µM): < 31.6 nM
IC50 (second compound 3.16 µM): < 31.6 nM
IC50 (second compound 10 µM): < 31.6 nM
viability, T/C [1]: 82.6%
viability, T/C [2]: 75.6%
viability, T/C [3]: 79.1%
viability, T/C [4]: 75.6%
viability, T/C [5]: 72.3%
viability, T/C [6]: 26.3%
viability, T/C [7]: 61.5%
viability, T/C [8]: 61.1%
viability, T/C [9]: 58.9%
viability, T/C [10]: 53.7%
viability, T/C [11]: 57.1%
viability, T/C [12]: 16.3%
viability, T/C [13]: 47.8%
viability, T/C [14]: 45.7%
viability, T/C [15]: 48%
viability, T/C [16]: 36.8%
viability, T/C [17]: 31.4%
viability, T/C [18]: 8.2%
viability, T/C [19]: 32.6%
viability, T/C [20]: 30.6%
viability, T/C [21]: 25.5%
viability, T/C [22]: 20.8%
viability, T/C [23]: 20.6%
viability, T/C [24]: 4.36%
viability, T/C [25]: 16.3%
viability, T/C [26]: 14.8%
viability, T/C [27]: 13.2%
viability, T/C [28]: 10.3%
viability, T/C [29]: 7.57%
viability, T/C [30]: 1.53%

Cn1nccc1Nc1nccc(-c2ccn(C(CO)c3ccc(Cl)c(F)c3)c(=O)c2)n1 (stereo not given) + CC(C)NCC(C(=O)N1CCN(c2ncnc3c2C(C)CC3O)CC1)c1ccc(Cl)cc1
IC50 (second compound 0.1 µM): 3290 nM
IC50 (second compound 0.316 µM): 1350 nM
IC50 (second compound 1 µM): 417 nM
IC50 (second compound 3.16 µM): < 31.6 nM
IC50 (second compound 10 µM): < 31.6 nM
viability, T/C [1]: 90.7%
viability, T/C [2]: 88.3%
viability, T/C [3]: 85%
viability, T/C [4]: 65.3%
viability, T/C [5]: 57.3%
viability, T/C [6]: 2.08%
viability, T/C [7]: 66%
viability, T/C [8]: 54.9%
viability, T/C [9]: 62%
viability, T/C [10]: 46.3%
viability, T/C [11]: 44.3%
viability, T/C [12]: 0.8%
viability, T/C [13]: 57.9%
viability, T/C [14]: 56%
viability, T/C [15]: 51.3%
viability, T/C [16]: 42%
viability, T/C [17]: 16.4%
viability, T/C [18]: 0.2%
viability, T/C [19]: 38.6%
viability, T/C [20]: 38.9%
viability, T/C [21]: 37%
viability, T/C [22]: 23.4%
viability, T/C [23]: 5.84%
viability, T/C [24]: 0.17%
viability, T/C [25]: 18.8%
viability, T/C [26]: 15.8%
viability, T/C [27]: 19%
viability, T/C [28]: 9.63%
viability, T/C [29]: 1.96%
viability, T/C [30]: 0.26%
